Earlier results on one compound are cited in patent US8298573B2, “Stable sterile filterable liposomal encapsulated taxane and other antineoplastic drugs” (priority 2003, dated 2012).

Molecules are shown by their SMILES.

With `CC(=O)O[C@H]1C(=O)[C@@]2(C)[C@H]([C@H](OC(=O)c3ccccc3)[C@]3(O)C[C@H](OC(=O)[C@H](O)[C@@H](NC(=O)c4ccccc4)c4ccccc4)C(C)=C1C3(C)C)[C@]1(OC(C)=O)CO[C@@H]1C[C@@H]2O` [paclitaxel], the solubility in water result is “extremely low”.
